From patent publication US11780851B2, “LRRK2 inhibitors” (H. Lundbeck A/S, priority 2021, dated 2023) come the findings set out here.

For one series, the target named is T1, LRRK2 G2019S (Homo sapiens, UniProt Q5S007, G2019S).
T1 construct: purchased Invitrogen (Life Technologies Corporation)
Nature of the series: LRRK2 G2019S kinase activity assay (LanthaScreen TR-FRET). Format: biochemical. The note with it: 250 pM LRRK2 G2019S, 1.3 mM ATP, 3 h at 30° C.; n≥2 tests. In outline:
(§1)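 TR-FRET measured phosphorylation of fluorescein-ERM LRRKtide by human LRRK2 residues 970–2527, wild-type or G2019S, detected with a terbium anti-phospho-LRRKtide antibody. The 520/495 nm ratio was normalized to uninhibited and inhibitor controls. IC50 came from a Hill fit, log-averaged over independent experiments.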
For orientation: TR-FRET usually uses a lanthanide donor and a delayed reading to cut background.

In the next series the target is T2, LRRK2 WT (Homo sapiens, UniProt Q5S007).
T2 construct: comprises residue 970 to 2527 of the full length human wild-type LRRK2 kinase; purchased Invitrogen (Life Technologies Corporation)
T2 sequence (Q5S007 970-2527): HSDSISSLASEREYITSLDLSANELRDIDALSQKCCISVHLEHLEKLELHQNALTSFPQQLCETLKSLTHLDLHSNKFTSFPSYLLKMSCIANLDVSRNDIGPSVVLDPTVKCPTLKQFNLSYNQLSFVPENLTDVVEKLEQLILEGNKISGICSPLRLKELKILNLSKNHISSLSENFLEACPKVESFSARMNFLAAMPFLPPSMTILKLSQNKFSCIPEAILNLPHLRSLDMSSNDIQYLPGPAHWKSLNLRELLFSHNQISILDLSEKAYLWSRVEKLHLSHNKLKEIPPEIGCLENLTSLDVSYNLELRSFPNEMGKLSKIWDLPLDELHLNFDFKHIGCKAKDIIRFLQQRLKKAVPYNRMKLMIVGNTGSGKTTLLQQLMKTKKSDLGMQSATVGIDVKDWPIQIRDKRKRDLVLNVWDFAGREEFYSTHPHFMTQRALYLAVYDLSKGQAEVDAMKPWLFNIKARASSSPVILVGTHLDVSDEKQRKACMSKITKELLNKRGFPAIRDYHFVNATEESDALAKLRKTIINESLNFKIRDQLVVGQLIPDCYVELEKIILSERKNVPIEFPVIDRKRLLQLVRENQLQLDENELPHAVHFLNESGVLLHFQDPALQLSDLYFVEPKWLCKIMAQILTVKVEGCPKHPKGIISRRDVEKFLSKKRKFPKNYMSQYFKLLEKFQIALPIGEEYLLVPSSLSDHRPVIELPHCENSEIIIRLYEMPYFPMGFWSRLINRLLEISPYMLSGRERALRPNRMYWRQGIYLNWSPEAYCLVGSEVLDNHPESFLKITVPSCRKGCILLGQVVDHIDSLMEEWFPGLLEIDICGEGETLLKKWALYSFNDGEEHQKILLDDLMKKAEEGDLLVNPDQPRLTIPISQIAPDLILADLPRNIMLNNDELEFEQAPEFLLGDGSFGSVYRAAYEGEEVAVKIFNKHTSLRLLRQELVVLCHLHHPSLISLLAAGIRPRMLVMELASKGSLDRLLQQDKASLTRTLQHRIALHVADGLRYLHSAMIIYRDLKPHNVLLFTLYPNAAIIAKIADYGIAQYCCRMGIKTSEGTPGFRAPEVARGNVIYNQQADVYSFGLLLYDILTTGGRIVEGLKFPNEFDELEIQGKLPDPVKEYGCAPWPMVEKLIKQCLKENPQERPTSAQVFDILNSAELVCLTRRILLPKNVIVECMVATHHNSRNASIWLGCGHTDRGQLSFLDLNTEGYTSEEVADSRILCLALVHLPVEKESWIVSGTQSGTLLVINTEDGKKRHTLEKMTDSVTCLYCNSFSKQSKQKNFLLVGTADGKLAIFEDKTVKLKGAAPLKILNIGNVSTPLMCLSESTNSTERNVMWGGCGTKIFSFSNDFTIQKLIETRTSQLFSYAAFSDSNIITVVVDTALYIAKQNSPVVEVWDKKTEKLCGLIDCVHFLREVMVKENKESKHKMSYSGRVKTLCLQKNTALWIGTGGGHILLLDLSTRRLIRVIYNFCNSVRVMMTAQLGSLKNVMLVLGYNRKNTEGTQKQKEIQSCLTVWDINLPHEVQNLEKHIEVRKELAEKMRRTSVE
Put plainly: LRRK2 wild-type kinase activity assay (LanthaScreen TR-FRET). The format is biochemical. The following applies: 1 nM LRRK2 WT, 1.3 mM ATP, 3.5 h at 30° C.; n≥2 tests. In outline:
as §1

For series [1], the system named is pooled donor, cryopreserved hepatocytes. Nature of the series: Hepatocyte intrinsic clearance assay. Format: in vitro ADME, human. The note with it: 0.1 μM, 2 h at 37° C., 1×10^6 hepatocytes/mL; * measured on 3 separate occasions, ** on a single occasion. How it is done:
Test compounds (final concentration 0.1 μM, 0.05% organic) were incubated for 2 h at 37° C., with shaking, in supplemented Leibovitz L-15 media (pH7.4) containing commercially sourced, pooled donor, cryopreserved hepatocytes (final concentration 1×10^6 hepatocytes/m L). The CLint reactions (350 μL) were initiated by addition of test compound. Aliquots (25 μL) were taken at 1, 5, 10, 15, 30, 60, 90 and 120 minutes and then protein crashed with ice-cold acetonitrile containing internal standard (150 μL) then centrifuged (1960 g for 20 minutes at 4° C.). Supernatant was diluted (1:4) with deionized water then analyzed by liquid chromatography (LC)-tandem mass spectrometry (MS/MS). The intrinsic clearances (CLint) were calculated from the slope (k) of the linear regressions of percentages of compound remaining in incubation against incubation time, according to equations 2 and 3.

The next series in a line: GSH adduct screening. The format is in vitro ADME, human. The following applies: 1 μM, 3 h at 37° C., HLM 0.5 mg/mL, NADPH, with and without GSH. On the procedure: Test compounds (final concentration 1 μM, 0.25% organic) were incubated for 3 h at 37° C. in commercially sourced, pooled donor, human liver microsomes (HLM, final concentration 0.5 mg/mL) with and without addition of glutathione (GSH; final concentration […]). The metabolic reaction was initiated by addition of microsomal solution to the mixture of cofactor NADPH (final concentration 1 mM), test compound and GSH. After 3 h of incubation in a water bath at 37° C., the reaction was stopped by addition of 0.2% formic acid in acetonitrile, followed by mixing and centrifugation (16000 g for 5 minutes). Supernatant was diluted (1:1) with HPLC water then analyzed by liquid chromatography (LC)-quadrupole time-of-flight mass spectrometry (QTOF-MS). Accurate mass MS and MS/MS spectra from samples with GSH and without GSH, respectively, were compared to identify detectable GSH and/or cysteine related adducts.

Series [2] in a line: Rat B/P (brain disposition). The note with it: male, Sprague-Dawley; for concentration at 1 h / Kp uu at 1 h / Kp at 1 h: time point 1.0 h. Format: in vivo, male Sprague-Dawley rats. The method in brief:
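Male Sprague-Dawley rats (n=3, standard body weight) were used to assess brain disposition. Plasma and brain homogenates underwent protein precipitation with acetonitrile containing internal standard, then LC-MS/MS measurement using an optimized method. Compound levels were quantified against matrix-matched calibration standards, and brain Kp was calculated as total brain concentration divided by total plasma concentration.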

A short description of series [3]: Free fraction in plasma (equilibrium dialysis). The format is in vitro ADME, male Sprague-Dawley rat. The note with it: rat plasma, 1 μM, 5 h at 37° C. In outline:
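Equilibrium dialysis (12-14 kDa membrane) of male Sprague-Dawley rat or female Gottingen minipig plasma, or rat brain homogenate diluted 1:4, against 100 mM sodium phosphate pH 7.4, compound at 1 μM nominal (≤0.5% DMSO), 5 h at 37 °C. LC/MS-MS quantification; percent free calculated, with dilution factor 4 for brain.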
(In general: In equilibrium dialysis only unbound substance equilibrates across the membrane.)

Read-outs that look alike come from different tables or passages of the source. Some results are limits rather than exact numbers.

T1 sequence (Q5S007 970-2527 G2019S): as the sequence (Q5S007 970-2527) above, with G1050S counted along it

In general, IC50 refers to the midpoint of a concentration-inhibition curve. For `Cc1c2c(nn1[C@@H]1CCOC[C@H]1F)OCCCn1nc(Cl)c3cnc(nc31)N2` (single isomer, unassigned) [Example 32, (+)-8-Chloro-2-((3S,4R) or (3R,4S)-3-fluorotetrahydro-2H-pyran-4-yl)-3-methyl-2,4,12,13-tetrahydro-11H-5,7-(azenometheno)dipyrazolo[3,4-b:5′,1′-g][1]oxa[4,6,8]triazacycloundecine], the IC50 on LRRK2 G2019S was determined as 6.1 nM; on LRRK2 WT it was 15 nM. Besides, the “CLint” value in series [1] is given as below 0.24 L/h/kg.
What is called Kp is tissue or fluid exposure divided by exposure in the circulation. Regarding `Cc1c2c(nn1[C@@H]1CCO[C@H](C)C1)OCCCn1nc(Cl)c3cnc(nc31)N2` (single isomer, unassigned) [Example 19], the IC50 at LRRK2 G2019S was 3.9 nM; at LRRK2 WT, 13 nM. For the same compound, in series [1], the “CLint” value was below 0.24 L/h/kg. Further, the “Adduct detected in GSH supplemented HLMs” value in “GSH adduct screening” is given as “+GSH”. For the same compound, the concentration at 0.5 h is 1430 ± 134 ng/g in series [2] (brain, oral gavage 10 mg/kg, time point 0.5 h, mean ± stdev, n = 3, read-out: Total brain concentration) and 1.14 ± 0.229 µg/mL in series [2] (plasma, oral gavage 10 mg/kg, time point 0.5 h, mean ± stdev, n = 3, read-out: Total plasma concentration). In series [2] (brain/plasma, oral gavage 10 mg/kg, time point 0.5 h, fubrain from brain homogenate), this compound showed a Kp uu at 0.5 h of 0.4 ± 0.04. In addition, the Kp at 0.5 h in series [2] (brain/plasma, oral gavage 10 mg/kg, time point 0.5 h, mean ± stdev, n = 3) is 1.28 ± 0.13. Besides, the “fuplasma (% free)” value in series [3] came to 24.0 % free.
As to `Cc1c2c(nn1[C@H]1CCCOC1)OCCCn1nc(Cl)c3cnc(nc31)N2` (single isomer, unassigned) [Example 4, (R) or (S)-8-Chloro-3-methyl-2-(tetrahydro-2H-pyran-3-yl)-2,4,12,13-tetrahydro-11H-5,7-(azenometheno)dipyrazolo[3,4-b:5′,1′-g][1]oxa[4,6,8]triazacycloundecine], the figures for the IC50 on LRRK2 G2019S and at LRRK2 WT were 2.8 nM and 12 nM, respectively. Moreover, the “CLint” value in series [1] turned out to be 0.87 L/h/kg. Besides, the concentration at 1 h in series [2] (brain, oral gavage 10 mg/kg, mean ± stdev, n = 3, read-out: Total brain concentration) came to 1360 ± 186 ng/g; in series [2] (plasma, oral gavage 10 mg/kg, mean ± stdev, n = 3, read-out: Total plasma concentration), 0.758 ± 0.145 µg/mL. In series [2] (brain/plasma, oral gavage 10 mg/kg, fubrain from brain homogenate), this compound came in with a Kp uu at 1 h of 0.42 ± 0.07. Besides, the Kp at 1 h in series [2] (brain/plasma, oral gavage 10 mg/kg, mean ± stdev, n = 3) is 1.82 ± 0.33. The “fuplasma (% free)” value in series [3] was 25.3 % free.
As for `[2H]C([2H])([2H])c1c2c(nn1[C@H]1CCO[C@@H](C)C1)OCCCn1nc(Cl)c3cnc(nc31)N2` (single isomer, unassigned) [Example 52, (−)-8-Chloro-3-(methyl-d3)-2-((2R,4R) or (2S,4S)-2-methyltetrahydro-2H-pyranyl)-2,4,12,13-tetrahydro-11H-5,7-(azenometheno)dipyrazolo[3,4-b:5′,1′-g][1]oxa[4,6,8]triazacycloundecine], the values for the IC50 on LRRK2 G2019S and on LRRK2 WT were 10 nM and 19 nM, respectively. Also, the “CLint” value in series [1] is listed as below 0.24 L/h/kg. Moreover, the “Adduct detected in GSH supplemented HLMs” value in the series “GSH adduct screening” is on record as “+GSH”.
`[2H]C([2H])([2H])c1c2c(nn1[C@@H]1CCCOC1)OCCCn1nc(Cl)c3cnc(nc31)N2` (single isomer, unassigned) [Example 60, (R) or (S)-8-Chloro-3-(methyl-d3)-2-(tetrahydro-2H-pyran-3-yl)-2,4,12,13-tetrahydro-11H-5,7-(azenometheno)dipyrazolo[3,4-b:5′,1′-g][1]oxa[4,6,8]triazacycloundecine]: the half-inhibitory concentration (IC50) at LRRK2 G2019S was 9 nM; on LRRK2 WT, 25 nM. Further, the “CLint” value in series [1] is recorded as 0.51 L/h/kg.
Taken in the same sequence, the figures for `Cc1c2c(nn1[C@H]1CCCOC1)OCCCn1nc(Cl)c3cnc(nc31)N2` (single isomer, unassigned) [Example 3, (R) or (S)-8-Chloro-3-methyl-2-(tetrahydro-2H-pyran-3-yl)-2,4,12,13-tetrahydro-11H-5,7-(azenometheno)dipyrazolo[3,4-b:5′,1′-g][1]oxa[4,6,8]triazacycloundecine] were 2.2 nM, 9.2 nM and 0.33 L/h/kg.
`Cc1c2c(nn1[C@H]1CCCOCC1)OCCCn1nc(Cl)c3cnc(nc31)N2` (single isomer, unassigned) [Example 30, (+)-(R) or (S)-8-Chloro-3-methyl-2-(oxepan-4-yl)-2,4,12,13-tetrahydro-11H-5,7-(azenometheno)dipyrazolo[3,4-b:5′,1′-g][1]oxa[4,6,8]triazacycloundecine]: the results for the IC50 on LRRK2 G2019S and on LRRK2 WT were 4 nM and 12 nM, respectively. In addition, the “CLint” value in series [1] amounted to 0.63 L/h/kg. Moreover, the concentration at 1 h in series [2] (brain, oral gavage 5 mg/kg, mean ± stdev, n = 3, read-out: Total brain concentration) amounted to 427 ± 96 ng/g; in series [2] (plasma, oral gavage 5 mg/kg, mean ± stdev, n = 3, read-out: Total plasma concentration), 0.21 ± 0.05 µg/mL. In addition, in series [2] (brain/plasma, oral gavage 5 mg/kg, fubrain from brain homogenate), the Kp uu at 1 h worked out at 0.73 ± 0.06. In series [2] (brain/plasma, oral gavage 5 mg/kg, mean ± stdev, n = 3), this compound had a Kp at 1 h of 2.05 ± 0.18. Also, the “fuplasma (% free)” value in series [3] stood at 26.5 % free.
